In patent US11541028B2, “Peptide pharmaceuticals for treatment of NASH and other disorders” (Mederis Diabetes LLC, priority 2018, dated 2023):
Each block holds one compound with its values, some of them ahead of it. Square brackets hold non-standard residues; d marks the D form. Peptide text beside a SMILES is read from it. * marks the point of attachment. GlcA(β-D,1-O-dodecyl) = CCCCCCCCCCCCO[C@@H]1O[C@H](C(=O)*)[C@@H](O)[C@H](O)[C@H]1O; αMeF = C[C@](N)(Cc1ccccc1)C(=O)O; Aib = CC(C)(N)C(=O)O

How the values were obtained:
Glucagon R = target: T1, Glucagon R (Homo sapiens, UniProt P47871); experiment: Cerep cellular assay, stimulation of cAMP levels, glucagon (human, cloned into CHO cells); assay type: cell-based; details: human receptor in CHO cells (Cerep)
T1 construct: host or cells: CHO cells
Procedure: (§1) Compounds were weighed precisely in an amount of about 1 mg and assayed in standard cellular assays (Cerep SA). The readout was the amount of cAMP generated in the cells treated with the test compounds, in either agonist or antagonist mode. […] The assays are described in Chicchi et al., J. Biol. Chem., 272:7765-7769 (1997) and Runge et al., Br. J. Pharmacol., 138:787-794 (2003).

GLP-1 R = target: T2, GLP-1 R (Mus musculus, UniProt O35659); experiment: Cerep cellular assay, stimulation of cAMP levels, GLP-1 (murine cell line); assay type: cell-based; set-up: key: §means superagonist; n.c. means EC50 not calculable
T2 construct: GLP-1 (murine cell line) cellular assays
T2 sequence (O35659 22-463): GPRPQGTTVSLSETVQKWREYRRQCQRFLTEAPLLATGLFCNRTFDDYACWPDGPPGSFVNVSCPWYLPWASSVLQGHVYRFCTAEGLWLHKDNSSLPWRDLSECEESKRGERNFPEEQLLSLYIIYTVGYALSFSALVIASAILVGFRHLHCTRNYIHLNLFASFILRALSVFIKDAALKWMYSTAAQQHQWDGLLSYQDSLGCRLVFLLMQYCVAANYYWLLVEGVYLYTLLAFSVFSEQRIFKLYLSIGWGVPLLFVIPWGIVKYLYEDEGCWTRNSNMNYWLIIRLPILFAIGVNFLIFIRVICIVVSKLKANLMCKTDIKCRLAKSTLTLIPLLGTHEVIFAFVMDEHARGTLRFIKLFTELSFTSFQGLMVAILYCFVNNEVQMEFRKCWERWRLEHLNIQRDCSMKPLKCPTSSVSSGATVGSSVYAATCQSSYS
Procedure: as §1

[1] = incubation in human plasma at 30° C, in 4 hours

T1 sequence (P47871 26-477): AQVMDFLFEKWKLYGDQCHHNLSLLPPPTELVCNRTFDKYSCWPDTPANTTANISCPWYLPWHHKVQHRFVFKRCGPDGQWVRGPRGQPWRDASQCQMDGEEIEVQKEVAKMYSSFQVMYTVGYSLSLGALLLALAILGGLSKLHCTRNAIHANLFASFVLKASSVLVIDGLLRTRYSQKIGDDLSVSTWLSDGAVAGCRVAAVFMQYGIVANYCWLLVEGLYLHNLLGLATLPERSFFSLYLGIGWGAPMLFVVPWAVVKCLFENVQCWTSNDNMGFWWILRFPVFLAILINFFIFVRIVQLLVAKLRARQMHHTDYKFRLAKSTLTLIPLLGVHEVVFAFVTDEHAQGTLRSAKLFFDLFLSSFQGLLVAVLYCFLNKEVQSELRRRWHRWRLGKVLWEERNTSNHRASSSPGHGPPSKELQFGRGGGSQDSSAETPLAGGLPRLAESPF

SMILES: CCCCCCCCCCCCO[C@@H]1O[C@H](C(=O)NCCCC[C@H](NC(=O)C(C)(C)NC(=O)[C@H](CC(=O)O)NC(=O)[C@H](CC(C)C)NC(=O)[C@H](Cc2ccc(O)cc2)NC(=O)[C@H](CCCCN)NC(=O)[C@H](CO)NC(=O)[C@H](Cc2ccc(O)cc2)NC(=O)[C@H](CC(=O)O)NC(=O)[C@H](CO)NC(=O)[C@@H](NC(=O)[C@](C)(Cc2ccccc2)NC(=O)[C@@H](NC(=O)CNC(=O)[C@H](CCC(N)=O)NC(=O)C(C)(C)NC(=O)[C@@H](N)Cc2c[nH]cn2)[C@@H](C)O)[C@@H](C)O)C(N)=O)[C@@H](O)[C@H](O)[C@H]1O [EU-A391] (H-H[Aib]QGT[αMeF]TSDYSKYLD[Aib]K(GlcA(β-D,1-O-dodecyl))-NH2; N-terminus assumed)
GCGR cellular response (Glucagon R): did not change

SMILES: CCCCCCCCCCCCCCO[C@@H]1O[C@H](C(=O)NCCCC[C@H](NC(=O)[C@H](CCCNC(=N)N)NC(=O)[C@H](CO)NC(=O)[C@H](CC(=O)O)NC(=O)[C@H](CC(C)C)NC(=O)[C@H](Cc2ccc(O)cc2)NC(=O)[C@H](CCCCN)NC(=O)[C@H](CO)NC(=O)[C@H](Cc2ccc(O)cc2)NC(=O)[C@H](CC(=O)O)NC(=O)[C@H](CO)NC(=O)[C@@H](NC(=O)[C@H](Cc2ccccc2)NC(=O)[C@@H](NC(=O)CNC(=O)[C@H](CCC(N)=O)NC(=O)C(C)(C)NC(=O)[C@@H](N)Cc2c[nH]cn2)[C@@H](C)O)[C@@H](C)O)C(=O)NC(C)(C)C(N)=O)[C@@H](O)[C@H](O)[C@H]1O [EU-A535]
efficacy class at GLP-1 R (mark in EC50 cell) (GLP-1 R): §4800

EC50 GLP-1 R (nM) (GLP-1 R; n.c. = EC50 not calculable): n.c.
SMILES: CCCCCCCCCCCCCCO[C@@H]1O[C@H](C(=O)NCCCC[C@@H]2NC(=O)[C@H](CCC(N)=O)NC(=O)[C@@H](NC(=O)[C@H](CC(=O)O)NC(=O)[C@H](CC(C)C)NC(=O)[C@H](Cc3ccc(O)cc3)NC(=O)[C@H](CCCCN)NC(=O)[C@H](CO)NC(=O)[C@H](Cc3ccc(O)cc3)NC(=O)[C@H](CC(=O)O)NC(=O)[C@H](CO)NC(=O)[C@@H](NC(=O)[C@H](Cc3ccccc3)NC(=O)[C@@H](NC(=O)CNC(=O)[C@H](CCC(N)=O)NC(=O)C(C)(C)NC(=O)[C@@H](N)Cc3c[nH]cn3)[C@@H](C)O)[C@@H](C)O)CCC(=O)NCCCC[C@@H](C(N)=O)NC(=O)[C@H](C)NC2=O)[C@@H](O)[C@H](O)[C@H]1O [EU-A540]

SMILES: CC[C@H](C)[C@H](NC(=O)[C@H](Cc1ccccc1)NC(=O)[C@H](CCC(=O)O)NC(=O)[C@H](CCCCN)NC(=O)[C@H](C)NC(=O)[C@H](C)NC(=O)[C@H](CCC(N)=O)NC(=O)CNC(=O)[C@H](CCC(=O)O)NC(=O)[C@H](CC(C)C)NC(=O)[C@H](Cc1ccc(O)cc1)NC(=O)[C@H](CO)NC(=O)[C@H](CO)NC(=O)[C@@H](NC(=O)[C@H](CC(=O)O)NC(=O)[C@H](CO)NC(=O)[C@@H](NC(=O)[C@H](Cc1ccccc1)NC(=O)[C@@H](NC(=O)CNC(=O)[C@H](CCC(=O)O)NC(=O)[C@H](C)NC(=O)[C@@H](N)Cc1c[nH]cn1)[C@@H](C)O)[C@@H](C)O)C(C)C)C(=O)N[C@@H](C)C(=O)N[C@@H](Cc1c[nH]c2ccccc12)C(=O)N[C@@H](CC(C)C)C(=O)N[C@H](C(=O)N[C@@H](CCCCN)C(=O)NCC(=O)N[C@@H](CCCNC(=N)N)C(N)=O)C(C)C [GLP-1(7-36)]
cleavage of compound in human plasma (compound signal versus time) [1]: essentially complete cleavage
